Source: patent US11911404B2, “Fucosylation and immune surveillance in melanoma” (H. LEE MOFFITT CANCER CENTER AND RESEARCH INSTITUTE, INC., priority 2017, dated 2024)
“Also recorded” adds a separate entry of the source.

How the values were obtained:
RPS3 = RPS3 fucosylation by lectin pull-down after cellular stressors; assay type: cell-based, human; conditions: melanoma cells treated 24-48 h, lectin PD (FIG. 12)
Source text: Specifically, (11A) RPS3 level in increased in melanoma cells relative to primary melanocytes (HEMN, human epidermal melanocytes). (11B) RPS3 is increased in melanoma through progression in human samples by TMA. TMA stained and analyzed by AQUA at Moffitt Cancer Center Department of Clinical Testing Development Core Facility. (11C) Nuclear RPS3 level increases with stage in matched primary and metastatic (MET) samples relative to HEMN cells (cell fractions analyzed by western blot [left]; cells analyzed by immunofluorescence [right]). (11D) Expression of RPS3-mDDK in vertical growth phase cells confers behavior associated with metastatic disease. Increased anchorage-independent growth [left], increased motility [right]. It was noted that Fucosylated RPS3 level increases in response to cellular stressors. Melanoma cells treated for 24-48 h with serum deprivation (SD), thapsigargin (T, thap) or mutant BRAF-inhibitor (Plexxikon, PLX) and assayed for RPS3 fucosylation by lectin PD (FIG. 12).

mouse melanoma model = assay: Mouse melanoma model, dietary fucose supplementation: tumor growth and metastasis; assay type: in vivo
Experimental: (§1) To determine whether dietary or genetic modulation of fucosylation affects tumor growth and metastasis, we previously studied a mouse melanoma model in which tumor fucosylation was increased either by dietary supplementation (FIG. 2A) with 100 mM fucose or by overexpressing mouse FUK (FIG. 2B). […] To determine whether fucosylation affects tumor infiltration by immune cells, Immunofluorescent staining analysis of CD45 (general leukocyte marker, red) and DAPI (blue) was performed (FIG. 2C). To determine whether fucosylation affects tumor infiltration by NK cells, immunofluorescent staining analysis for DX5 (an NK cell marker, red) and DAPI (blue) was performed (FIG. 2D). Both NK cells and CD4+ T cells were elevated in samples from fucose supplemented mice.

melanoma tumors = assay: Immunofluorescent staining of tumors for immune cell infiltration (CD45, DX5); assay type: in vivo, mouse; conditions: for infiltration of tumors by CD45+ immune cells (leukocytes) and NK cells: dietary fucose supplementation
Experimental: as §1

SW1 mouse melanoma cells = assay: SW1 mouse melanoma tumor growth in C3H mice fed control or L-fucose water, with or without CD4+/CD8+ T cell depletion; assay type: in vivo
Experimental: (§2) To determine which immune cell populations were affected by L-fucose, another mouse melanoma model treated with control or L-fucose-supplemented water was used. First, 1.25×10^6 SW1 mouse melanoma cells were injected into the back right flanks of the mice and allowed the tumors to grow to 150 mm^3. At 150 mm^3 (14 days), 100 mM L-fucose was administered via the drinking water to half of the mice. Tumor growth was monitored (FIGS. 3A and 3B). Total and specific subpopulations of tumor-infiltrating lymphocytes were assessed by cell flow cytometric analysis (FIGS. 3C and 3D). Assessed populations included F4/80 (macrophage)-, Gr-1 (MDSCs)-, Cd11c (Dendritic cells)-, and DX5 (NK cells)-positive cells. For T-cells, we probed for CD3 (general T-cell marker) and further for CD4 and CD8 (for those T cell subpopulations). Of the CD4-positive cells, CD25 positive cells was used to elucidate the T regulatory cells. […] Both CD4 and CD8 positive T cells (CD3+ cells) increased in response to fucose. However, myeloid derived suppressor cells (MDSCs) decreased in response to dietary fucose supplementation.
This SW1 melanoma tumor/C3H mouse isogenic model was recapitulated to profile—in detail—tumor-infiltrating immune populations. >65% reduced tumor growth was observed during dietary L-fucose supplementation (FIG. 4A). […]

[1] = test system: SW1 mouse melanoma tumors; assay: Flow cytometric analysis of tumor-infiltrating lymphocytes in SW1 tumors; assay type: in vivo; conditions: for tumor-infiltrating CD4+ and CD8+ T cells: dietary fucose vs control diet
Experimental: as §2
This SW1 melanoma tumor/C3H mouse isogenic model was recapitulated to profile—in detail—tumor-infiltrating immune populations. >65% reduced tumor growth was observed during dietary L-fucose supplementation (FIG. 4A). […] Although most tumor-suppressive immune cell types were increased in the fucosylation-high, smaller tumors, tumor-infiltrating CD4+ and CD8+ T cells were most increased-doubled-in these tumors compared to control diet tumors (FIG. 4B, left and right). […] The presence and cytolytic activity of CD4+ T cells in tumors has been correlated with better patient survival rates and increased responsiveness to immunotherapies, respectively.

1205Lu melanoma cells = assay: LDH-release cytotoxicity assay, NK cell co-culture with pre-treated melanoma cells; assay type: cell-based, human; conditions: 1205Lu cells pre-treated with 250 μM, 8 h co-culture
Experimental: After 8 h, LDH levels released in the media were measured. *=p 0.02; •=p<0.001. FIGS. 5C and 5D show Immunoblot analysis using AAL lectin (another fucose-binding lectin) was performed to confirm the effects of FUTi (C) or L-fucose (D) on 1205Lu cells (96 h treatment). (•: p-value≥0.02)(*: p-value≥0.002).
The possibility that tumor fucosylation can directly activate the tumor cell-killing activity of NK cells was explored. To assay for this possibility, a lactate dehydrogenase (LDH)-release-based assay was used in which the fucosylation of LU1205 melanoma cells was modulated prior to co-culture with NK cells. Specifically, primary NK cells isolates (5A) or immortalized NK92 cell line (5B) were co-cultured with 1205Lu melanoma cells that were pre-treated with DMSO, 250 μM pan-fucosyltransferase inhibitor (FUTi), or 250 μM L-fucose for 8 hours. Non-radioactive LDH-release cytotoxicity assay was performed to measure extent of NK cell-mediated killing. […] (•: p-value≥0.02) (*: p-value≥0.002).

HLA-DRB1 = assay: Flow cytometry of cell surface presentation, normalized to PKH26; assay type: cell-based, human; conditions: WM793 cells, L-fucose treatment (FIG. 16B)
Experimental: […] Stained cells were subjected to flow cytometric analyses and quantitation of protein signal/PKH26 signal to quantitate protein per relatice surface area.
FIGS. 16A and 16B show HLA-DRB1 is fucosylated on N48, and fucosylation promotes its cell surface presentation. […] AAL or HLA-DRB1 signals were normalized to PKH26 (total membrane stain).
To determine molecular mechanisms underlying the effects of fucosylation, a click-chemistry-based proteomic screen was performed to identify all fucosylated proteins in melanoma cells. 2 fucosylated immunomodulatory proteins, HLA-A and HLA-DRB1, were identified in melanoma cells. Fucose-binding lectin pulldown and immunoblot analysis confirmed the i) the expression and ii) the fucosylation of these 2 HLA proteins in melanoma cells, and further, indicate that their fucosylation is reduced when comparing patient-matched primary vs. metastatic cell lines (FIGS. 6A & 6C). The proximity ligation analysis technique, a cutting edge technique conventionally implemented to visualize 2 directly interacting proteins or post-translationally modified species of specific proteins when antibodies for the modifications are available (e.g., phosphorylated Tyr using an anti-phospho-Tyr antibody). […]

SW1 mouse melanoma [2] = assay: Growth of control, H2K1- or IEβ-knocked down SW1 tumors in mice fed ±100 mM L-fucose water; assay type: in vivo
Source text: N=7 mice/condition. •:p<0.01. […] (*initiate L-fucose).
(§3) Fucosylation of HLA-DRB1 occurs on amino acid N48 (mutation to G abolishes interaction with fucose-binding AAL lectin) (FIG. 16A). Increasing fucosylation (L-fucose treatment) promotes cell surface abundance of HLA-DRB1 (which is expected to increase CD4^+ T cell activation) (FIG. 16B). […] A lectin-mediated proximity ligation technique was developed to visualize fucosylated HLA-DRB1 in cells and tissues (FIG. 18).

SW1 mouse melanoma [3] = assay: SW1 tumor growth in mice fed ±L-fucose and treated with anti-CTLA4 or anti-PD1; assay type: in vivo; conditions: SW1/C3H/HeJ model, oral 100 mM L-fucose from day 14; antibodies 20 mg/kg twice weekly
Experimental: SW1 tumor growth curves in mice fed±100 mM L-fucose treated with either control (PBS) or […] (17A) or α-PD1 (17B). Combinations are color-coded as indicated. N=8 mice per condition. L-fucose was administered in the water starting on day 14 (refreshed twice weekly); α-CTLA4 or α-PD1 was administered (20 mg/kg each) twice weekly starting day 14. Compared with PBS control: #: p<0.001; *: p<0.05:
as §3

[4] = test system: SW1 mouse melanoma tumors; assay: Flow cytometric analysis of tumor-infiltrating lymphocytes in SW1 tumors; assay type: in vivo; conditions: L-fucose treatment, CD4+ T cell-depleted mice (FIG. 4D)

C/C=C(/C)C(=O)O[C@H]1C(C)=C2[C@H]([C@@H]1OC(=O)CCCCCCC)[C@@](C)(OC(C)=O)C[C@H](OC(=O)CCC)[C@@]1(O)[C@H]2OC(=O)[C@@]1(C)O [thapsigargin]
fucosylated RPS3 level (RPS3): increases

C[C@H](O)[C@@H](O)[C@@H](O)[C@H](O)C=O [L-fucose]
reduction in tumor growth (mouse melanoma model; L-fucose supplementation, earlier model): > 50% | block of tumor growth and metastasis (mouse melanoma model; dietary L-fucose supplementation, mouse models): > 50% | tumor suppression (mouse melanoma model; dietary supplementation with 100 mM fucose (FIG. 2A)): increased tumor suppression | infiltration of tumors by CD45+ immune cells (leukocytes) and NK cells (melanoma tumors): significant increases | infiltration of tumors by CD45+ immune cells (leukocytes) and NK cells (melanoma tumors; listed as fucose): increased | NK cells and CD4+ T cells in tumor samples (melanoma tumors; fucose supplemented mice, immunofluorescence (FIGS. 2C, 2D)): elevated | L-fucose-triggered tumor suppression after loss of CD4+ T cells (SW1 mouse melanoma cells; CD4+ T cell-immunodepleted mice (FIG. 4C left)): abrogated tumor suppression | reduced tumor growth (SW1 mouse melanoma cells; SW1/C3H model, dietary 100 mM L-fucose in water, 45 days (FIG. 4A)): > 65% | increase of NK cells, T cells (CD4+ and CD8+), dendritic cells and macrophage ([1]; administration of fucose): 10-50 fold | overall immune infiltration of tumors ([1]; dietary fucose supplementation, 100 mM in drinking water): increases | myeloid derived suppressor cells (MDSCs) in tumors ([1]; dietary fucose supplementation, listed as fucose): decrease | tumor-infiltrating CD4+ and CD8+ T cells [1]: doubled | tumor-infiltrating CD4+ and CD8+ T cells ([1]; listed as fucose): increase | infiltrating immune cells per gram of tumor vs control diet ([1]; tumors from L-fucose-supplemented mice): 10-50 fold | NK cell-mediated tumor-cell killing (LDH release), immortalized human NK cells (1205Lu melanoma cells): sufficient to induce the tumor-cell killing activity | NK cell-mediated tumor-cell killing (LDH release), primary human NK cells (1205Lu melanoma cells): sufficient to induce the tumor-cell killing activity | cell surface abundance of HLA-DRB1 (HLA-DRB1): promotes | difference in ±L-fuc tumor growth curves in H2K1 knocked-down tumors (SW1 mouse melanoma [2]; shH2K1, ±100 mM L-fucose water): not significant | L-fucose-triggered tumor suppression in IEβ (HLA-DRB1 ortholog) knocked-down tumors (SW1 mouse melanoma [2]; shIEβ vs control shRNA (SCR), ±100 mM L-fucose water): abrogates; also recorded: not significant | suppression of melanoma growth compared with checkpoint antibodies (SW1 mouse melanoma [3]): more significantly than anti-CTLA4 or anti-PD1 alone; also recorded: more tumor suppressive than α-CTLA4 or α-PD1 alone | numbers of intratumoral CD8+ T cells, CD11c+ dendritic cells and NK cells [4]: reduced numbers
